The NIST ThermoML archive (doi:10.1016/j.jct.2008.09.014)
Values joined by “and” are separate entries in the source; they are usually repeats but may differ in a detail not shown here. Equal entries are not always repeated. Numbers after ± are expanded uncertainties.

Details: Crystal; for vapor or sublimation pressure: Calculated from knudsen effusion weight loss

O=[N+]([O-])c1ccc2[nH]ccc2c1 [5-nitroindole]
Details | vapor or sublimation pressure
353.15 K | 9.42e-05 ± 4.7e-06 kPa and 9.3e-05 ± 4.7e-06 kPa
355.2 K | 0.0001148 ± 5.8e-06 kPa and 0.0001117 ± 5.6e-06 kPa
357.18 K | 0.0001368 ± 6.9e-06 kPa and 0.0001345 ± 6.7e-06 kPa and 0.000131 ± 6.6e-06 kPa
359.15 K | 0.0001667 ± 8.4e-06 kPa and 0.0001723 ± 8.6e-06 kPa and 0.0001702 ± 8.5e-06 kPa
361.19 K | 0.0001997 ± 1e-05 kPa and 0.000201 ± 1e-05 kPa
363.17 K | 0.0002441 ± 1.2e-05 kPa and 0.0002364 ± 1.2e-05 kPa
365.16 K | 0.0003138 ± 1.6e-05 kPa and 0.0003041 ± 1.5e-05 kPa and 0.0002935 ± 1.5e-05 kPa
367.19 K | 0.0003798 ± 1.9e-05 kPa and 0.0003685 ± 1.8e-05 kPa and 0.0003544 ± 1.8e-05 kPa
369.17 K | 0.0004448 ± 2.2e-05 kPa and 0.000439 ± 2.2e-05 kPa and 0.0004322 ± 2.2e-05 kPa
371.17 K | 0.0005523 ± 2.8e-05 kPa and 0.0005458 ± 2.7e-05 kPa and 0.0005326 ± 2.7e-05 kPa
373.19 K | 0.0006817 ± 3.4e-05 kPa and 0.0006526 ± 3.3e-05 kPa and 0.0006311 ± 3.2e-05 kPa
375.17 K | 0.0008006 ± 4e-05 kPa and 0.0007692 ± 3.9e-05 kPa

O=[N+]([O-])c1ccc2c(c1)CCN2 [5-nitroindoline]
Details | mass density [kg/m3]
298.15 K, 101.33 kPa, mass and volume measurement | 1390 ± 20

Details | vapor or sublimation pressure
338.09 K | 6.24e-05 ± 3.1e-06 kPa and 6.06e-05 ± 3e-06 kPa and 6.3e-05 ± 3.2e-06 kPa
340.12 K | 7.74e-05 ± 3.9e-06 kPa and 7.36e-05 ± 3.7e-06 kPa and 7.65e-05 ± 3.8e-06 kPa
342.2 K | 0.000101 ± 5.1e-06 kPa and 9.69e-05 ± 4.9e-06 kPa and 9.36e-05 ± 4.7e-06 kPa
344.08 K | 0.0001236 ± 6.2e-06 kPa and 0.0001184 ± 5.9e-06 kPa and 0.0001211 ± 6.1e-06 kPa
346.1 K | 0.0001521 ± 7.6e-06 kPa and 0.0001453 ± 7.3e-06 kPa and 0.0001435 ± 7.2e-06 kPa
348.19 K | 0.0001876 ± 9.4e-06 kPa and 0.0001782 ± 8.9e-06 kPa and 0.0001803 ± 9e-06 kPa
350.1 K | 0.000241 ± 1.2e-05 kPa and 0.0002364 ± 1.2e-05 kPa and 0.0002307 ± 1.2e-05 kPa
352.13 K | 0.0002958 ± 1.5e-05 kPa and 0.0002905 ± 1.5e-05 kPa and 0.0002792 ± 1.4e-05 kPa
354.19 K | 0.0003738 ± 1.9e-05 kPa and 0.0003438 ± 1.7e-05 kPa and 0.0003465 ± 1.7e-05 kPa
356.1 K | 0.0004193 ± 2.1e-05 kPa and 0.0004189 ± 2.1e-05 kPa and 0.0004131 ± 2.1e-05 kPa
358.12 K | 0.0005196 ± 2.6e-05 kPa and 0.0005153 ± 2.6e-05 kPa and 0.0005004 ± 2.5e-05 kPa
360.18 K | 0.0006675 ± 3.3e-05 kPa and 0.0006261 ± 3.1e-05 kPa and 0.0006157 ± 3.1e-05 kPa
